According to publication PMC5882710, “Amphotericin B-conjugated polypeptide hydrogels as a novel innovative strategy for fungal infections” (Royal Society Open Science, 2018):
≈ marks a conversion by molar mass, not a printed value. Read-outs that look alike come from different tables or passages of the source.

Legend:
Candida albicans [1] = assay: Time-kill curves at 1 x MIC and 2 x MIC; format: cell-based; conditions: C. albicans, 28°C, sampled 0, 1, 2, 4, 6, 8, 12 and 24 h, n = 3
Description: (§1) The minimum inhibitory concentration (MIC) of the Dex, AmB, Nap-FFDKY, Npx-FFDKY, Fmoc-FFDKY, Nap-AmB, Npx-AmB and Dex-AmB hydrogels was determined by a serial 2-fold dilution of test samples. Fourteen different concentrations of drugs and hydrogels were prepared in DMF solution. One millilitre of the fungal strain […] colony-forming unit (CFU)/tube was inoculated into each tube containing different concentrations (1 ml) of test samples and incubated at 28°C (200 rpm) for 24 h. The MIC was defined as the minimum concentration of the sample inhibiting the visible growth of the microorganism. The experiment was repeated at least three times. Based on the values of MIC, 0.1 ml of the fungal strain containing different concentrations of test samples which inhibited the visible growth of the microorganism was subcultivated on the Sabouraud's dextrose agar plates, and incubated at 28°C for 48 h. The minimum bactericidal concentration (MBC) determination was defined as the minimum concentration of the sample sterilizing the visible growth of the microorganism (lower than 5 CFU/plate). The experiment was repeated at least three times. Based on the values of MIC, the fungal strain containing 1 × MIC and 2 × MIC concentrations of test samples was incubated at 28°C. A test suspension containing 0.1 ml was taken out and used to evaluate fungus colonies at 0, 1, 2, 4, 6, 8, 12 and 24 h.

Candida albicans [2] = assay: microbe, parasite or virus in culture; format: cell-based; conditions: for MBC / MIC: Candida albicans; for MBC: read-out: MBC; for MIC: read-out: MIC
Description: as §1

[3] = low bioavailability; cited from earlier work
Excerpt: Invasive fungal infection has a significant influence on animal and plant life, which is a major cause of mortality that kills approximately 1.5 million people every year. Amphotericin B (AmB) is a broad-spectrum antifungal macrolide polyene antibiotic. Its antifungal effect is exerted by forming complexes with membrane sterols to allow the increase in the permeability of the fungal membrane. AmB is the most common antifungal agent used in clinical practice despite strong side-effects with low solubility and low bioavailability (less than 0.9%). Many researchers attempt ...

| Compound | time for which antifungal activity is exhibited in time-kill curves (Candida albicans [1]) [h] | MBC (Candida albicans [2]; C. albicans, 0.1 ml subcultivated on Sabouraud's dextrose agar, 28°C, 48 h, lower than 5 CFU/plate, repeated at least three times) [µg/mL] | MIC (Candida albicans [2]; C. albicans, serial 2-fold dilution, 14 concentrations prepared in DMF, 1 ml fungal strain 10^18 CFU/tube, 28°C, 200 rpm, 24 h, visible growth, repeated at least three times) [µg/mL] | MBC (Candida albicans [2]; supplement Fig. S21) [µg/mL] | MIC (Candida albicans [2]; supplement Fig. S21) [µg/mL] | bioavailability [3] | antifungal effect against C. albicans (in words) (Candida albicans [2]; MIC/MBC test, serial 2-fold dilution, 28°C, 24 h) |
| --- | --- | --- | --- | --- | --- | --- | --- |
| C[C@@H]1[C@H](O)[C@@H](C)/C=C/C=C/C=C/C=C/C=C/C=C/C=C/[C@H](O[C@@H]2O[C@H](C)[C@@H](O)[C@H](N)[C@@H]2O)C[C@@H]2O[C@](O)(C[C@@H](O)C[C@@H](O)[C@H](O)CC[C@@H](O)C[C@@H](O)CC(=O)O[C@H]1C)C[C@H](O)[C@H]2C(=O)O [AmB, Amphotericin B] | 2 | 130 (≈ 141 µM) | 4.06 (≈ 4.39 µM) | 130 (≈ 141 µM) | 4.06 (≈ 4.39 µM) | less than 0.9% | – |
| C[C@@H]1C[C@H]2[C@@H]3CCC4=CC(=O)C=C[C@]4(C)[C@@]3(F)[C@@H](O)C[C@]2(C)[C@@]1(O)C(=O)CO [Dex, dexamethasone] | – | – | – | – | – | – | less antifungal effective |
